Entries after “also recorded” stand apart in the source; their conditions may differ.

In test [1] the target is T1, TrkA (Homo sapiens, UniProt P04629). In words: 125I-NGF equilibrium binding, HEK 293 cells expressing TrkA. Set-up: expressed in transfected cells; host or cells: HEK 293 cells. As to conditions: for Specific Binding of 125I-NGF: 293/TrkA, 1 μM, 30 minutes at 25° C., control 39076 +/− 2885; for Displacement of 125I-NGF binding: 293 cells that expressed TrkA, excess concentrations. As for the experimental part: (§1) ^125I-NGF Binding Analysis. For equilibrium binding studies, ^125I-NGF was prepared as described previously (Hempstead et al, 1989). PC12 cells stably overexpressing TrkA (2×10^5 cells) and HEK 293 cells expressing TrkA (2×10^5) were incubated with ^125I-NGF in the absence and presence of adenosine compounds for 30 minutes at 25° C. The cells were then washed twice with PBS, and ^125I-NGF stripped with an acid solution (0.2 M acetic acid, 0.5 M NaCl). Nonspecific binding was assessed by adding unlabeled NGF at a final concentration of 1000 ng/ml and represented less than 20% of total binding. Specific binding was defined as total binding minus nonspecific binding. All conditions were carried out in triplicate and SEM calculated.
Target sequence in this assay (P04629 33-796, species assumed): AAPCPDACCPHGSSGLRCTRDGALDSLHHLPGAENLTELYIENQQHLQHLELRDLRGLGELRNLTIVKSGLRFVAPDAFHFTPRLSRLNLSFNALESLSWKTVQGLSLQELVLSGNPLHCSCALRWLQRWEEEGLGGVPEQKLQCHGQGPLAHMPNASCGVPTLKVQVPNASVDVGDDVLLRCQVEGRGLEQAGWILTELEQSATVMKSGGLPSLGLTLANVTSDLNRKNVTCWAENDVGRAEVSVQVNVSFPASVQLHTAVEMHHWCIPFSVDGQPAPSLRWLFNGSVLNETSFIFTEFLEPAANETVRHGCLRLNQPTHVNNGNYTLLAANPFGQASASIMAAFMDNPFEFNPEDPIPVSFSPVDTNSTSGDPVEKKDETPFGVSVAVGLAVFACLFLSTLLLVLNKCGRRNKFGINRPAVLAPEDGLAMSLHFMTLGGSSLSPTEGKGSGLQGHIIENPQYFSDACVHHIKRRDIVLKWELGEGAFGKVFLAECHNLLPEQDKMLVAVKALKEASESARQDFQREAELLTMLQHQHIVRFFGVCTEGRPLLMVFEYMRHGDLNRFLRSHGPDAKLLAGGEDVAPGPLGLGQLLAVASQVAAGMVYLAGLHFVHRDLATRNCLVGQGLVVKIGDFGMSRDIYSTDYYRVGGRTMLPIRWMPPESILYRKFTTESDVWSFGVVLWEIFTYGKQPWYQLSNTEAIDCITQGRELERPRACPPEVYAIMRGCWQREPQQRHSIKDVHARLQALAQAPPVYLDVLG
On the technique in general: Displacement assays read how much labelled ligand stays bound in the presence of the test substance.

In a further test the test system is TrkA receptors. Put plainly: TrkA receptor tyrosine phosphorylation in PC12 (615) cells (anti-pan-Trk immunoprecipitation, PY99 anti-phosphotyrosine immunoblot). The note with it: PC12 (615) cells. Type of test: cell-based. Here is the method:
Stably transfected PC12 cells expressing high levels of TrkA (615) were treated with the indicated compounds for 2 hours. The cells were subsequently harvested in lysis buffer as described in the Materials and Methods of Example 1. Lysates were immunoprecipitated with anti-pan Trk rabbit antiserum. Immunocomplexes were analyzed by immunoblotting with anti-phosphotyrosine antibody (PY99).
In FIG. 2A, different concentrations of adenosine were administered to PC12615 cells for 2 hours or NGF (1 ng/ ml) for 10 min. Cells were also treated with CGS21680 at the indicated dose for 2 hours. In FIG. 2B, PC12 cells (615) were treated with adenosine (10 μM) for various times or with 5 ng/ml NGF for 10 min. Phosphorylated TrkA receptors were detected by immunoblot analysis using PY99 anti-phosphotyrosine antibodies. The amount of Trk receptors in each condition was verified by immunoblotting.
In FIG. 3A, PC12 cells (615) were treated with the A2A agonist CGS 21680 (10 nM) and an A1 agonist CPA (10 nM) for 2 hr. ZM 241385 (10 nM), an A2A antagonist, was incubated with the cells for 15 min prior to treatment with adenosine (10 μM) for 2 hours. In FIG. 3B, PC12 cells (615) were incubated with the indicated concentrations of PP1, a Src family kinase inhibitor (Hanke et al, 1996), for 30 min, and then treated with adenosine (10 μM) for 2 hours. Activation of TrkA was assessed by immunoprecipitation and immunoblot analysis using PY99 anti-phosphotyrosine antibody.
In FIG. 7A, different concentrations of PACAP27 were administered to PC12 (615) cells for 2 hours or NGF (5 ng/ml) for 10 min. […] Phosphorylated TrkA receptors were detected by immunoblot analysis using PY99 anti-phosphotyrosine antibodies. The level of Trk receptors for each condition was verified by immunoblotting with anti-Trk antibodies.
(§2) Immunoprotection and Immunoblotting. PC12 cells or PC12-615 cells (Hempstead et al, 1992), were maintained in Dulbecco's Modified Eagle's Medium (DMEM) containing 10% fetal bovine serum (FBS) supplemented with 100 units/ml penicillin, 100 μg/ml streptomycin, and 2 mM glutamine plus 200 μg/ml G418. Cells were placed in low serum medium (1% FBS, 0.5% horse serum) overnight prior to experiments. Cell lysates from PC12, 615 cells, or hippocampal cells were incubated in lysis buffer (1% NP40) for 4 hours to overnight at 4° C. with anti-pan-Trk polyclonal antibody, followed by incubation with protein A-Sepharose beads. Equivalent amounts of protein were analyzed for each condition. The beads' were washed five times with lysis buffer and the immune complexes were boiled in SDS-sample buffer and loaded on sodium dodecyl sulfate-polyacrylamide electrophoresis (SDS-PAGE) gels for immunoblot analysis. The immunoreactive protein bands were detected by ECL reagents based upon enhanced chemiluminescence procedure (Amersham Pharmacia).
Immunoprecipitated and Immunoblotting. PC12 (615) cells were maintained in DMEM containing 10% FBS supplemented with 100 units/ml penicillin, 100 μg/ml streptomycin, and 2 mM glutamine plus 200 μg/ml G418. Cells were placed in serum free medium overnight before experiments. Cell lysates from PC12(615) cells, or basal forebrain cells were incubated in lysis buffer (1% Nonidet P-40) for 4 hrs to overnight at 4° C. with anti-pan-Trk polyclonal antibody followed by incubation with protein A-Sepharose beads. Equivalent amounts of protein were analyzed for each condition.
(In western blotting, separated proteins are transferred to a membrane and probed.)

The test system of the next test is TrkB receptors. Put plainly: Trk receptor phosphorylation in primary E17 hippocampal neurons (immunoprecipitation, anti-phosphotyrosine Western blot). It counts as cell-based, rat. The note with it: two hours. Here is the method:
FIGS. 4A and 4B show Western blots on adenosine activation of Trk receptors in hippocampal neurons. Primary cultures of E17 hippocampal neurons were prepared as described in the Materials and Methods of Example 1 and treated with (FIG. 4A) CGS 21680 (10 nM) or BDNF (1 ng/ml) for various times and (FIG. 4B) either adenosine (10 μM), CGS 21680 (10 nM), CPA (10 nM) or BDNF (10 ng/ml) for 2 hr. Activation of TrkA receptors was assessed by immunoprecipitation and Western blotting with anti-phosphotyrosine antibody.
as §2
Hippocampal Cell Cultures. Dissociated primary cultures of hippocampal neurons from embryonic day 17 (E17) rats were prepared from timed-pregnant Sprague-Dawley rats as described previously (Aibel et al, 1998). Fetuses were removed under sterile conditions and kept in PBS on ice for microscopic dissection of the hippocampus. The meninges were removed and the tissue was placed in Neurobasal media (Gibco BRL). […] Cells were counted and then plated on culture wells coated with 0.01 mg/ml poly-D-lysine overnight. […]

The target in test [2] is T1, TrkA. Put plainly: 125I-NGF equilibrium binding, PC12 cells stably overexpressing TrkA. Details: expressed in transfected cells. The note with it: for Displacement of 125I-NGF binding: PC12 cells overexpressing TrkA, adenosine 1 mM, CGS 21680 1 μM; for Specific Binding of 125I-NGF: 30 minutes at 25° C., control 14316 +/− 350. Here is the method: as §1
Target sequence in this assay (P04629 33-796): as the sequence (P04629 33-796, species assumed) above

With `CCNC(=O)[C@H]1O[C@@H](n2cnc3c(N)nc(NCCc4ccc(CCC(=O)O)cc4)nc32)[C@H](O)[C@@H]1O` [CGS 21680, 2-[(4-(2-carboxyethyl)phenylethyl)]aminoadenosine-5′-N-ethylcarboxamide], the “Specific Binding of 125I-NGF” value at TrkA [1] is recorded as 39568 +/− 2032; on TrkA [2] (Pc12, 1 μM), 14237 +/− 1055. The figures for the “Displacement of 125I-NGF binding” value at TrkA [1] and at TrkA [2] were “did not displace” and “no displacement”, respectively. The “Activation of TrkA receptor activity” value in the test with TrkA receptors (1 nM, 2 hours) was “verified”. In addition, the “Phosphorylation of TrkB receptors” value in the test on TrkB receptors (10 nM) was “gave rise to phosphorylated TrkB receptors”.
Take `Nc1ncnc2c1ncn2[C@@H]1O[C@H](CO)[C@@H](O)[C@H]1O` [adenosine]: the “Specific Binding of 125I-NGF” value is recorded as 36618 +/− 4185 on TrkA [1] and 14403 +/− 888 on TrkA [2] (Pc12, 1 mM). Besides, the “Displacement of 125I-NGF binding” value on TrkA [1] is listed as “did not displace”; on TrkA [2], “no displacement”. Besides, the “Concentration range of the effect upon TrkA receptor activity” value in the test on TrkA receptors (2 hours) is listed as “low nanomolar range; also recorded: low concentration range”. Moreover, the “Time required for increase in TrkA activation” value in the test with TrkA receptors (adenosine 10 μM) was “at least 90 minutes”. Moreover, in the test on TrkA receptors (ligand for 2 hours, adenosine 10 μM), the “Activation of TrkA receptors (tyrosine phosphorylation)” value is “Activated TrkA receptors were observed”. For the same molecule, in the test on TrkB receptors (10 μM), the “Phosphorylation of TrkB receptors” value was “gave rise to phosphorylated TrkB receptors”.

The values are drawn from patent US7169568B2, “Method for screening molecules that exert a neurotrophic effect through activation of neurotrophin receptors” (New York University, priority 2000, dated 2007).
